According to patent US8133884B2, “Compounds for the treatment of hepatitis C” (priority 2008, dated 2012):
Read-outs that look alike come from different tables or passages of the source.

What was measured:
HCV replicon = HCV replicon assay (FRET or luciferase reporter); type: cell-based; details: one of the methods described
How it was run: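 HCV replicon Huh-7 cells were exposed to titrated compound at 37 °C, with Alamar blue as a cytotoxicity read. Replication was measured by NS3 cleavage of an EDANS/DABCYL FRET peptide (20 μM, 340/490 nm kinetic read) or by Renilla luciferase, with background from high-dose protease inhibitor wells. EC50 was taken as 50% signal reduction; a 384-well format used 3.0×10^3 cells/well, 0.5% DMSO and 3 days.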

HCV NS5B = molecular target: T1, HCV NS5B (Hepatitis C virus genotype 1b, UniProt Q9WMX2); experiment: Modified HCV NS5B RdRp enzyme assay (preincubation protocol); type: biochemical
T1 construct: The protein was expressed with an 18 amino acid C-terminal truncation to enhance the solubility; made in house; host or cells: E. coli BL21(DE3)
How it was run: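 C-terminally truncated (Δ18) genotype 1b NS5B from E. coli, 14 nM, added to compound first, then polyA template (0.2 nM), 3H-UTP (0.29 μM) and oligo-dT12 primer precaptured on streptavidin SPA beads (20 nM). Run 4 h at 30° C, pH 7.5, 2% DMSO; IC50 fitted from seven concentrations.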

1a replicon = experiment: HCV replicon assay with a 1a replicon; type: cell-based; details: Hepatitis C virus
Text: To perform the HCV FRET screening assay, 96-well cell culture plates were used, The FRET peptide (Anaspec, Inc.) (Taliani et al., Anal. Biochem., 240:60-67 (1996)) contains a fluorescence donor, EDANS, near one end of the peptide and an acceptor, DABCYL, near the other end. The fluorescence of the peptide is quenched by […] resonance energy transfer (RET) between the donor and the acceptor, but as the NS3 protease cleaves the peptide the products are released from RET quenching and the fluorescence of the donor becomes apparent. The assay reagent was made as follows: 5× cell Luciferase cell culture lysis reagent from Promega (#E153A) diluted to 1× with dH2O, NaCl added to 150 mM final, the FRET peptide diluted to 20 μM final from a 2 mM stock.
To prepare plates, HCV replicon cells, with or without a Renilla luciferase reporter gene, were trypsinized and placed into each well of a 96-well plate with titrated test compounds added in columns 3 through 12; columns 1 and 2 contained a control compound (HCV protease inhibitor), and the bottom row contained cells without compound. The plates were then placed in a CO2 incubator at 37° C.
Subsequent to addition of the test compounds described above (FRET Assay Preparation), at various times the plate was removed and Alamar blue solution (Trek Diagnostics, #00-100) was added per well as a measure of cellular toxicity. After reading in a CYTOFLUOR® 4000 instrument (PE Biosystems), plates were rinsed with PBS and then used for FRET assay by the addition of 30 ul of the FRET peptide assay reagent described above (FRET Assay Preparation) per well. The plate was then placed into the CYTOFLUOR® 4000 instrument which had been set to 340 excite/490 emission, automatic mode for 20 cycles and the plate read in a kinetic mode. Typically, the signal to noise using an endpoint analysis after the reads was at least three-fold. Alternatively, after Alamar blue reading, plates were rinsed with PBS, 50 ul of DMEM (high glucose) without phenol red was added and plates were then used for luciferase assay using the Promega DUAL-GLO® Luciferase Assay System.
Compound analysis was determined by quantification of the relative HCV replicon inhibition and the relative cytotoxicity values. To calculate cytoxicity values, the average Alamar Blue fluorescence signals from the control wells were set as 100% non-toxic. The individual signals in each of the compound test wells were then divided by the average control signal and multiplied by 100% to determine […]. To calculate the HCV replicon inhibition values, an average background value was obtained from the two wells containing the highest amount of HCV protease inhibitor at the end of the assay period. These numbers were similar to those obtained from naïve Huh-7 cells. […]

[1] = Hepatitis C virus, class symbol
[2] = determined similarly but with a 1a replicon, class symbol, read-out: EC50

T1 sequence (Q9WMX2 2420-2992): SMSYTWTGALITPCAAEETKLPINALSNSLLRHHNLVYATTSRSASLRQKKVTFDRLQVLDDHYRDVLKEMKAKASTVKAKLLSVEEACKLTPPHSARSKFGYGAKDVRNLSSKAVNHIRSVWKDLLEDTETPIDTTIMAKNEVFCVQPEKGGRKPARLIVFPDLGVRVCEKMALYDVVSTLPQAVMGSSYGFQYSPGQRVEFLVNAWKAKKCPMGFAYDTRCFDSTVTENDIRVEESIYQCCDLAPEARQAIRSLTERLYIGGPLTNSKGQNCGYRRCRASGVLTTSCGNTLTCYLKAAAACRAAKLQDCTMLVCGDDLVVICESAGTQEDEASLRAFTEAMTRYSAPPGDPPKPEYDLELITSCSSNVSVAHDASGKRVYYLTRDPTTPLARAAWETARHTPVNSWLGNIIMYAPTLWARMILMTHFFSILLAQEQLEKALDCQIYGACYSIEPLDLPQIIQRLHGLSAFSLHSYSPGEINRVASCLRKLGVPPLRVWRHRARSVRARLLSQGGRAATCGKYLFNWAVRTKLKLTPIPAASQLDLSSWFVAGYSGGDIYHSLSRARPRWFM

Row | SMILES | EC50 (HCV replicon; [1]) [nM] | IC50 (HCV NS5B; class symbol) [nM] | further results
1 | COc1ccc2c(c1)C=C(c1nn(C3CC3)cc1C(=O)N1CCOCC1)Cn1c-2c(C2CCCCC2)c2ccc(C(=O)NS(=O)(=O)C(C)C)cc21 | 1.7 to 500 | 1.7 to 500 | 
2 | CCOC(=O)c1cnn(-c2ccncc2C)c1C1=Cc2cc(OC)ccc2-c2c(C3CCCCC3)c3ccc(C(=O)NS(=O)(=O)C(C)C)cc3n2C1 | 1.7 to 500 | 1.7 to 500 | 
3 | COc1ccc2c(c1)C=C(c1c(C(=O)N3CCOCC3)cnn1-c1ccncc1C)Cn1c-2c(C2CCCCC2)c2ccc(C(=O)NS(=O)(=O)C(C)C)cc21 | 1.7 to 500 | 1.7 to 500 | 
4 | COCC1CN(C(=O)c2cnn(-c3ccncc3C)c2C2=Cc3cc(OC)ccc3-c3c(C4CCCCC4)c4ccc(C(=O)NS(=O)(=O)C(C)C)cc4n3C2)CCO1 (stereo not shown) | 1.7 to 500 | 1.7 to 500 | EC50 (HCV replicon; Hepatitis C virus, exact value): 170 nM; IC50 (HCV NS5B; exact value): 5.5 nM
5 | COc1ccc2c(c1)C=C(c1c(C(=O)N3C4CCCC3COC4)cnn1-c1ccncc1C)Cn1c-2c(C2CCCCC2)c2ccc(C(=O)NS(=O)(=O)C(C)C)cc21 | 1.7 to 500 | 1.7 to 500 | EC50 (HCV replicon; Hepatitis C virus, exact value): 4 nM; IC50 (HCV NS5B; exact value): 4.3 nM
6 | COc1ccc2c(c1)C=C(c1c(C(=O)N3C[C@@H](C)O[C@@H](C)C3)cnn1-c1ccncc1C)Cn1c-2c(C2CCCCC2)c2ccc(C(=O)NS(=O)(=O)C(C)C)cc21 | 1.7 to 500 | 1.7 to 500 | 
7 | COc1ccc2c(c1)C=C(c1c(C(=O)N3C[C@@H](C)N(C)[C@@H](C)C3)cnn1-c1ccncc1C)Cn1c-2c(C2CCCCC2)c2ccc(C(=O)NS(=O)(=O)C(C)C)cc21 | 1.7 to 500 | 1.7 to 500 | 
8 | COc1ccc2c(c1)C=C(c1c(C(=O)N3C4COCC3COC4)cnn1-c1ccncc1C)Cn1c-2c(C2CCCCC2)c2ccc(C(=O)NS(=O)(=O)C(C)C)cc21 | 1.7 to 500 | 1.7 to 500 | 
9 | COc1ccc2c(c1)C=C(c1c(C(=O)N3C4CCC3CC(C)(O)C4)cnn1-c1ccncc1C)Cn1c-2c(C2CCCCC2)c2ccc(C(=O)NS(=O)(=O)C(C)C)cc21 (stereo not shown) | 1.7 to 500 | 1.7 to 500 | 
10 | CCOC(=O)c1cnn(C2CC[N+](C)([O-])CC2)c1C1=Cc2cc(OC)ccc2-c2c(C3CCCCC3)c3ccc(C(=O)NS(=O)(=O)C(C)C)cc3n2C1 (stereo not shown) | 1.7 to 500 | 1.7 to 500 | EC50 (HCV replicon; Hepatitis C virus, exact value): 220 nM; IC50 (HCV NS5B; exact value): 5.1 nM
11 | COc1ccc2c(c1)C=C(c1c(C(=O)N3C[C@@H](C)O[C@@H](C)C3)c(C(C)C)nn1C1CC1)Cn1c-2c(C2CCCCC2)c2ccc(C(=O)NS(=O)(=O)C(C)C)cc21 |  |  | EC50 (1a replicon; [2]): 1.7 to 500 nM
12 | COc1ccc2c(c1)C=C(c1c(C(=O)N3C[C@@H](C)N(C)[C@@H](C)C3)c(C(C)C)nn1C1CC1)Cn1c-2c(C2CCCCC2)c2ccc(C(=O)NS(=O)(=O)C(C)C)cc21 |  |  | EC50 (1a replicon; [2]): 1.7 to 500 nM
13 | COc1ccc2c(c1)C=C(c1c(C(=O)N3C4CCC3CN(C)C4)c(C(C)C)nn1C1CC1)Cn1c-2c(C2CCCCC2)c2ccc(C(=O)NS(=O)(=O)C(C)C)cc21 |  |  | EC50 (1a replicon): 1.7 to 500 nM
14 | COc1ccc2c(c1)C=C(c1c(C(=O)N3C4CCC3COC4)c(C(C)C)nn1C1CC1)Cn1c-2c(C2CCCCC2)c2ccc(C(=O)NS(=O)(=O)C(C)C)cc21 |  |  | EC50 (1a replicon): 1.7 to 500 nM
15 | COc1ccc2c(c1)C=C(c1c(C(=O)N3C[C@@H](C)O[C@@H](C)C3)cnn1C1CCC1)Cn1c-2c(C2CCCCC2)c2ccc(C(=O)NS(=O)(=O)N(C)C)cc21 [drawing 259] | 1.7 to 500 | 1.7 to 500 | 
16 | COc1ccc2c(c1)C=C(c1c(C(=O)N3C[C@@H](C)O[C@@H](C)C3)cnn1C1CCC1)Cn1c-2c(C2CCCCC2)c2ccc(C(=O)NS(=O)(=O)N(C)C)cc21 [drawing 260] |  | 1.7 to 500 | EC50 (HCV replicon; class symbol): 1.7 to 500 nM
